Experimental data taken from patent US20150152064A1, “METHODS AND COMPOSITIONS OF TREATING A FLAVIVIRIDAE FAMILY VIRAL INFECTION” (The Board of Trustees of the Leland Stanford Junior …, priority 2007, published 2015).

Assay: in vitro
Type: cell-based
Details: human, huh-7.5 cells
Protocol: Luciferase assays are performed at about 48 hr to about 72 hr or 96 hr.
After a 5-30 min recovery at about 25° C., pulsed cells are diluted into 2-25 ml of prewarmed growth medium. […] Untreated cells are used as a negative control for water soluble compounds. […] Medium is changed daily.
Following about 48, about 72, or about 96 hrs of treatment, cells are incubated for 1-5 hrs at about 37° C. in the presence of 1-20% Alamar Blue reagent (TREK Diagnostic Systems).

Cc1ccc(Cn2ncc3ccccc32)cc1 [Compound 185]
viability at 5 µM: ≥ 90% | viability at 10 µM: ≥ 90%
